Reference: patent EP0081312A2, “Antibiotics, their preparation and use” (BEECHAM GROUP PLC, priority 1981, dated 1983)
In brackets after ≈: the same amount, converted by molar mass. Where two headings read alike, the source gives them in different places.

Legend:
Experiment in all cases: MIC, concentration required to inhibit growth of bacteria
Type in all cases: cell-based
Citrobacter freundii Ei = test system: Citrobacter freundii Ei
Enterobacter cloacae N1 = test system: Enterobacter cloacae N1
Escherichia coli 0111 = test system: Escherichia coli 0111
Escherichia coli JT39 = test system: Escherichia coli JT39
Klebsiella aerogenes A = test system: Klebsiella aerogenes A
Proteus mirabilis C977 = test system: Proteus mirabilis C977
Proteus morganii 1580 = settings: Morganella morganii
Proteus rettgeri WM16 = settings: Providencia rettgeri
Proteus vulgaris WO91 = test system: Proteus vulgaris WO91
Pseudomonas aeruginosa A = test system: Pseudomonas aeruginosa A
[1] = test system: Salmonella typhirmurium CT10
Serratia marcescens US20 = test system: Serratia marcescens US20
Shigella sonnei MB 11967 = settings: MB11967
Bacillus Subtilis A = test system: Bacillus Subtilis A
[2] = test system: Staphylococcus aureux Oxford
[3] = test system: Staphylococcus aureus Russell
[4] = test system: Staphylococcus aureus 1517
Streptococcus faecalis I = settings: Enterococcus faecalis
Escherichia coli ESS = test system: Escherichia coli ESS
[5] = test system: Streptococcus pyogenes CN10
[6] = test system: Streptococcus pneumoniae CN33
[7] = Citrobacter freundii Ei, read-out: MIC
[8] = Klebsiella aerogenes A, read-out: MIC
[9] = Proteus morganii 1580, read-out: MIC
[10] = Proteus rettgeri WM16, read-out: MIC
[11] = Pseudomonas aeruginosa A, read-out: MIC
[12] = Bacillus Subtilis A, read-out: MIC
[13] = Staphylococcus aureux Oxford, read-out: MIC
[14] = Staphylococcus aureus Russell, read-out: MIC
[15] = Streptococcus faecalis I, read-out: MIC

SMILES | MIC (Escherichia coli 0111) [µg/mL] | MIC [1] [µg/mL] | MIC (Shigella sonnei MB 11967) [µg/mL] | MIC (Escherichia coli ESS) [µg/mL] | MIC (Citrobacter freundii Ei; Citrobacter freundii) [µg/mL] | MIC (Enterobacter cloacae N1) [µg/mL] | MIC (Escherichia coli JT39) [µg/mL] | MIC (Klebsiella aerogenes A; Klebsiella aerogenes) [µg/mL] | MIC (Proteus mirabilis C977) [µg/mL] | MIC (Proteus morganii 1580; 1580) [µg/mL] | MIC (Proteus rettgeri WM16; WM16) [µg/mL] | MIC (Proteus vulgaris WO91) [µg/mL] | MIC (Pseudomonas aeruginosa A; Pseudomonas aeruginosa) [µg/mL] | MIC (Serratia marcescens US20) [µg/mL] | MIC (Bacillus Subtilis A; Bacillus subtilis) [µg/mL] | MIC ([2]; Staphylococcus) [µg/mL] | MIC ([3]; Staphylococcus aureus) [µg/mL] | MIC [4] [µg/mL] | MIC (Streptococcus faecalis I) [µg/mL] | MIC [5] [µg/mL] | also measured
C[C@H](O)[C@@H]1C(=O)N2C(C(=O)O)=C(S/C=C\C(=O)N(C(=O)NC3CCCCC3)C3CCCCC3)C[C@H]12 [Example 1] | 25 (≈ 49.4 µM) | 25 (≈ 49.4 µM) | 25 (≈ 49.4 µM) | 1.6 (≈ 3.16 µM) | – | – | – | – | – | – | – | – | – | – | – | – | – | – | – | – | MIC (Citrobacter freundii Ei; [7]): 12.5 µg/mL (≈ 24.7 µM); MIC (Enterobacter cloacae N1; read-out: MIC): 50 µg/mL (≈ 98.9 µM); MIC (Escherichia coli JT39; read-out: MIC): 50 µg/mL (≈ 98.9 µM); MIC (Klebsiella aerogenes A; [8]): 25 µg/mL (≈ 49.4 µM); MIC (Proteus mirabilis C977; read-out: MIC): 50 µg/mL (≈ 98.9 µM); MIC (Proteus morganii 1580; [9]): 25 µg/mL (≈ 49.4 µM); MIC (Proteus rettgeri WM16; [10]): 50 µg/mL (≈ 98.9 µM); MIC (Proteus vulgaris WO91; read-out: MIC): 25 µg/mL (≈ 49.4 µM); MIC (Pseudomonas aeruginosa A; [11]): > 100 µg/mL; MIC (Serratia marcescens US20; read-out: MIC): 25 µg/mL (≈ 49.4 µM); MIC (Bacillus Subtilis A; [12]): ≤ 0.1 µg/mL; MIC [2, 13]: 0.4 µg/mL (≈ 0.791 µM); MIC [3, 14]: 0.8 µg/mL (≈ 1.58 µM); MIC ([4]; read-out: MIC): 6.2 µg/mL (≈ 12.3 µM); MIC (Streptococcus faecalis I; [15]): 0.8 µg/mL (≈ 1.58 µM)
C[C@H](O)[C@@H]1C(=O)N2C(C(=O)[O-])=C(S/C=C\C(=O)NCc3ccccc3)C[C@H]12.[Na+] [Example 2, Sodium (5R,6R)-3-[(Z)-2 benzylaminocarbonylethenylthio]-6-[(S)-1-hydroxyethyl]-7-oxo-1-azabicyclo[3.2.0]hept-2-ene-2-carboxylate] | 0.2 | ≤ 0.1 | ≤ 0.1 | ≤ 0.1 | ≤ 0.1 | 0.2 | 0.2 | 0.2 | ≤ 0.1 | 0.8 | 0.4 | 0.2 | 25 | 0.4 | ≤ 0.1 | ≤ 0.1 | ≤ 0.1 | 1.6 | 0.2 | ≤ 0.1 | –
C[C@@H](OC=O)[C@H]1C(=O)N2C(C(=O)[O-])=C(S/C=C\C(=O)NCc3ccccc3)C[C@H]12.[Na+] [Example 3, Sodium (5R,6S)-3-[(Z)-2-benzylaminocarbonylethenylthio]-6-[(R)-1-formyloxyethyl]-7-oxo-1-azabicyclo[3.2.0]hept-2-ene-2-carboxylate] | 0.8 | 0.4 | 1.6 | 0.4 | 3.1 | 3.1 | 0.4 | 0.4 | 1.6 | 6.2 | 3.1 | 0.4 | 50 | 3.1 | ≤ 0.1 | ≤ 0.1 | – | 3.1 | 0.8 | 0.8 | MIC [6]: 0.8 µg/mL
C[C@@H](O)[C@H]1C(=O)N2C(C(=O)O)=C(S/C=C\C(=O)NCc3ccccc3)C[C@H]12 [Example 4, Sodium (5R,6S)-3-[(Z)-2 benzylaminocarbonylethenylthio]-6-[(R)-1-hydroxyethyl]-7-oxo-1-azabicyclo[3.2.0]hept-2-ene-2-carboxylate.] | 0.2 | 0.2 | 0.4 | ≤ 0.1 | – | – | – | – | – | – | – | – | – | – | – | – | – | – | – | – | MIC (Citrobacter freundii Ei; [7]): 0.8 µg/mL; MIC (Enterobacter cloacae N1; read-out: MIC): 1.6 µg/mL; MIC (Escherichia coli JT39; read-out: MIC): ≤ 0.1 µg/mL; MIC (Klebsiella aerogenes A; [8]): ≤ 0.1 µg/mL; MIC (Proteus mirabilis C977; read-out: MIC): 0.8 µg/mL; MIC (Proteus morganii 1580; [9]): 1.6 µg/mL; MIC (Proteus rettgeri WM16; [10]): 3.1 µg/mL; MIC (Proteus vulgaris WO91; read-out: MIC): 0.4 µg/mL; MIC (Pseudomonas aeruginosa A; [11]): 50 µg/mL; MIC (Serratia marcescens US20; read-out: MIC): 0.8 µg/mL; MIC (Bacillus Subtilis A; [12]): ≤ 0.1 µg/mL; MIC [2, 13]: ≤ 0.1 µg/mL; MIC [3, 14]: ≤ 0.1 µg/mL; MIC ([4]; read-out: MIC): 6.2 µg/mL; MIC (Streptococcus faecalis I; [15]): 0.4 µg/mL; MIC ([6]; read-out: MIC): ≤ 0.1 µg/mL; MIC ([5]; read-out: MIC): ≤ 0.1 µg/mL
CC(O)C1C(=O)N2C(C(=O)[O-])=C(S/C=C/C(N)=O)CC12.[Na+] (stereo not shown) [Example 5, Sodium 3-[E-2-carbamoylethenylthio]-6-[1-hydroxyethyl]-7-oxo-1-azabicyclo[3.2.0]hept-2-ene-2-carboxylate] | 0.4 | 1.6 | 1.6 | 0.4 | 1.6 | 1.6 | 0.8 | 1.6 | 3.1 | 6.2 | 6.2 | 6.2 | > 100 | 3.1 | 0.2 | 0.8 | 1.6 | 50 | 6.2 | 0.2 | MIC [6]: ≤ 0.1 µg/mL
CC(O)C1C(=O)N2C(C(=O)[O-])=C(S/C=C\C(N)=O)CC12.[Na+] (stereo not shown) [Example 6, Sodium 3-[Z-2-carbamoylethenylthio]-6-[1-hydroxyethyl]-7-oxo-1-azabicyclo[3.2.0]hept-2-ene-2-carboxylate] | 6.2 | 6.2 | 12.5 | 3.1 | 50 | 25 | 12.5 | 6.2 | 50 | 50 | 50 | 25 | > 100 | 12.5 | 1.6 | 1.6 | 3.1 | 100 | 50 | 3.1 | –
